Measurements: PubChem BioAssay AID1963975 (Molecular Pharmacology Branch, DTP, NCI, 2024)

Tested on: 624824-186-R-J2-PDC multicell spheroids, viability
Assay: Anticancer human tumor 624824-186-R-J2-PDC patient-derived colon adenocarcinoma cell line growth inhibition [PI3K]
Conditions: for IC50: curve of first compound; for viability, T/C: stronger effect = lower value
How it was run: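 Multi-cell spheroids combine tumor cells with HUVEC and human MSCs, treated with targeted agents alone or with inavolisib, alpelisib, duvelisib or copanlisib. Concentrations fall in half-log steps from at or near clinical Cmax, or from 10 microM where Cmax is unknown; viability read-out.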
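Note: spheroids exposed to agents for 7 days before viability read.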
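Throughout, for viability, T/C: 100% = DMSO vehicle treated spheroids.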

With CNC(=O)c1ccc(N2C(=S)N(c3ccc(C#N)c(C(F)(F)F)c3)C(=O)C2(C)C)cc1F + COc1c(OCCCN2CCOCC2)ccc2c3n(c(=NC(=O)c4cnc(N)nc4)nc12)CCN3 the IC50 (second compound 0.00316 µM) was greater than 10 µM, the IC50 (second compound 0.01 µM) was greater than 10 µM and the IC50 (second compound 0.0316 µM) was greater than 10 µM. The IC50 (second compound 0.1 µM) was greater than 10 µM, the IC50 (second compound 0.316 µM) was greater than 10 µM and the IC50 (second compound 1 µM) was greater than 10 µM. It also gave a viability, T/C (second compound 0.00316 µM, first compound 0.0316 µM) of 77.2%, a viability, T/C (second compound 0.00316 µM, first compound 0.1 µM) of 74% and a viability, T/C (second compound 0.00316 µM, first compound 0.316 µM) of 76.4%. The viability, T/C (second compound 0.00316 µM, first compound 1 µM) was 91.7%, the viability, T/C (second compound 0.00316 µM, first compound 3.16 µM) was 89.6% and the viability, T/C (second compound 0.00316 µM, first compound 10 µM) was 110%. For the same compound, the viability, T/C (second compound 0.01 µM, first compound 0.0316 µM) was 110%, the viability, T/C (second compound 0.01 µM, first compound 0.1 µM) was 103% and the viability, T/C (second compound 0.01 µM, first compound 0.316 µM) was 99.3%. The viability, T/C (second compound 0.01 µM, first compound 1 µM) was 94%, the viability, T/C (second compound 0.01 µM, first compound 3.16 µM) was 96.9% and the viability, T/C (second compound 0.01 µM, first compound 10 µM) was 99%. The viability, T/C (second compound 0.0316 µM, first compound 0.0316 µM) was 90.4%, the viability, T/C (second compound 0.0316 µM, first compound 0.1 µM) was 81.7% and the viability, T/C (second compound 0.0316 µM, first compound 0.316 µM) was 96.6%. It also gave a viability, T/C (second compound 0.0316 µM, first compound 1 µM) of 96.5%, a viability, T/C (second compound 0.0316 µM, first compound 3.16 µM) of 78.4% and a viability, T/C (second compound 0.0316 µM, first compound 10 µM) of 89.7%. It also gave a viability, T/C (second compound 0.1 µM, first compound 0.0316 µM) of 95.6%, a viability, T/C (second compound 0.1 µM, first compound 0.1 µM) of 71.8% and a viability, T/C (second compound 0.1 µM, first compound 0.316 µM) of 73.4%. It also gave a viability, T/C (second compound 0.1 µM, first compound 1 µM) of 84%, a viability, T/C (second compound 0.1 µM, first compound 3.16 µM) of 79.9% and a viability, T/C (second compound 0.1 µM, first compound 10 µM) of 70.9%. For the same compound, the viability, T/C (second compound 0.316 µM, first compound 0.0316 µM) was 62.2%, the viability, T/C (second compound 0.316 µM, first compound 0.1 µM) was 66.3% and the viability, T/C (second compound 0.316 µM, first compound 0.316 µM) was 65%. The viability, T/C (second compound 0.316 µM, first compound 1 µM) was 61.5%, the viability, T/C (second compound 0.316 µM, first compound 3.16 µM) was 65.4% and the viability, T/C (second compound 0.316 µM, first compound 10 µM) was 65.3%. It also gave a viability, T/C (second compound 1 µM, first compound 0.0316 µM) of 65%, a viability, T/C (second compound 1 µM, first compound 0.1 µM) of 61.6% and a viability, T/C (second compound 1 µM, first compound 0.316 µM) of 57.2%. For the same compound, the viability, T/C (second compound 1 µM, first compound 1 µM) was 62.5%, the viability, T/C (second compound 1 µM, first compound 3.16 µM) was 63% and the viability, T/C (second compound 1 µM, first compound 10 µM) was 57.3%.
Work on Cn1cnc2c(F)c(Nc3ccc(Br)cc3Cl)c(C(=O)NOCCO)cc21 + COc1c(OCCCN2CCOCC2)ccc2c3n(c(=NC(=O)c4cnc(N)nc4)nc12)CCN3 yielded an IC50 (second compound 0.00316 µM) greater than 3 µM, an IC50 (second compound 0.01 µM) greater than 3 µM and an IC50 (second compound 0.0316 µM) of 0.243 µM. For the same compound, the IC50 (second compound 0.1 µM) was 0.038 µM, the IC50 (second compound 0.316 µM) was less than 0.00949 µM and the IC50 (second compound 1 µM) was less than 0.00949 µM. For the same compound, the viability, T/C (second compound 0.00316 µM, first compound 0.00949 µM) was 86%, the viability, T/C (second compound 0.00316 µM, first compound 0.03 µM) was 74.6% and the viability, T/C (second compound 0.00316 µM, first compound 0.0949 µM) was 64.4%. For the same compound, the viability, T/C (second compound 0.00316 µM, first compound 0.3 µM) was 68.7%, the viability, T/C (second compound 0.00316 µM, first compound 0.949 µM) was 72.8% and the viability, T/C (second compound 0.00316 µM, first compound 3 µM) was 63.1%. It also gave a viability, T/C (second compound 0.01 µM, first compound 0.00949 µM) of 79.3%, a viability, T/C (second compound 0.01 µM, first compound 0.03 µM) of 75.7% and a viability, T/C (second compound 0.01 µM, first compound 0.0949 µM) of 66.5%. For the same compound, the viability, T/C (second compound 0.01 µM, first compound 0.3 µM) was 62.6%, the viability, T/C (second compound 0.01 µM, first compound 0.949 µM) was 62.8% and the viability, T/C (second compound 0.01 µM, first compound 3 µM) was 51.4%. It also gave a viability, T/C (second compound 0.0316 µM, first compound 0.00949 µM) of 70.8%, a viability, T/C (second compound 0.0316 µM, first compound 0.03 µM) of 59.2% and a viability, T/C (second compound 0.0316 µM, first compound 0.0949 µM) of 53%. The viability, T/C (second compound 0.0316 µM, first compound 0.3 µM) was 51.5%, the viability, T/C (second compound 0.0316 µM, first compound 0.949 µM) was 42.4% and the viability, T/C (second compound 0.0316 µM, first compound 3 µM) was 28.5%. It also gave a viability, T/C (second compound 0.1 µM, first compound 0.00949 µM) of 60%, a viability, T/C (second compound 0.1 µM, first compound 0.03 µM) of 54.6% and a viability, T/C (second compound 0.1 µM, first compound 0.0949 µM) of 36%. The viability, T/C (second compound 0.1 µM, first compound 0.3 µM) was 37.4%, the viability, T/C (second compound 0.1 µM, first compound 0.949 µM) was 31.4% and the viability, T/C (second compound 0.1 µM, first compound 3 µM) was 15.3%. It also gave a viability, T/C (second compound 0.316 µM, first compound 0.00949 µM) of 50.7%, a viability, T/C (second compound 0.316 µM, first compound 0.03 µM) of 38.9% and a viability, T/C (second compound 0.316 µM, first compound 0.0949 µM) of 39.9%. For the same compound, the viability, T/C (second compound 0.316 µM, first compound 0.3 µM) was 28.3%, the viability, T/C (second compound 0.316 µM, first compound 0.949 µM) was 18.9% and the viability, T/C (second compound 0.316 µM, first compound 3 µM) was 2.2%. It also gave a viability, T/C (second compound 1 µM, first compound 0.00949 µM) of 49.1%, a viability, T/C (second compound 1 µM, first compound 0.03 µM) of 39.7% and a viability, T/C (second compound 1 µM, first compound 0.0949 µM) of 33.5%. The viability, T/C (second compound 1 µM, first compound 0.3 µM) was 26.4%, the viability, T/C (second compound 1 µM, first compound 0.949 µM) was 11.1% and the viability, T/C (second compound 1 µM, first compound 3 µM) was 1.13%.
